{"source": "paper PMC6539868", "about": "“Syntheses and Biological Studies of Cu(II) Complexes Bearing Bis(pyrazol-1-yl)- and Bis(triazol-1-yl)-acetato Heteroscorpionate Ligands” (Molecules, 2019)", "key": {"2008": {"system": "2008", "assay": "MTT cytotoxicity assay, 2D monolayer", "type": "cell-based, human", "conditions": "72 h, MTT test, ovarian cancer; read-out: IC50 (µM) ± S.D. 2008", "from_the_text": "(§1) Human lung (A549), colon (HCT-15 and LoVo) and breast (MCF-7) carcinoma cell lines were obtained from American Type Culture Collection (ATCC, Rockville, MD, USA). Human pancreatic BxPC3 carcinoma cells were obtained from European Collection of Cell Culture (ECACC, Salisbury, UK). Human ovarian 2008 cancer cells were kindly provided by Prof. G. Marverti (Dept. of Biomedical Science of Modena University, Modena, Italy). Human squamous cervical A431 carcinoma cells were kindly provided by Prof. F. Zunino (Division of Experimental Oncology B, Istituto Nazionale dei Tumori, Milan, Italy). The LoVo-OXP cells were obtained as previously described. Cell lines were maintained in culture in the logarithmic phase at 37 °C in a 5% carbon dioxide atmosphere using the following media added of 10% fetal calf serum (Euroclone, Milan, Italy), antibiotics (50 units/mL penicillin and 50 μg/mL streptomycin), and 2 mM L-glutamine: (i) RPMI-1640 medium (Euroclone) for HCT-15, A431, MCF-7, BxPC3 and 2008 cells; (ii) F-12 HAM’S (Sigma Chemical Co.) for A549, LoVo and LoVo-OXP cells.\n(§2) The growth inhibitory effect towards 2D tumor cell lines was evaluated by means of MTT assay as previously described. IC50 values were calculated by four parameters logistic (4-PL) model. All the values are the means ± SD of not less than five measurements starting from three different cell cultures.\n(§3) The in vitro antitumor activity of copper(II) complexes 1–3 and the uncoordinated ligands [HC(COOH)(pz^Me2)2], [HC(COOH)(pz)2] and [HC(COOH)(tz)2] was evaluated against a panel of human cancer cell lines derived from solid tumors. Adherent cell lines representative of cervical (A431), pancreatic (BxPC3) colon (HCT-15), breast (MCF-7), lung (A549), and ovarian (2008) cancers, differently sensitive to cisplatin, were exposed to the indicated compounds for 72 h."}, "A431": {"system": "A431", "assay": "MTT cytotoxicity assay, 2D monolayer", "type": "cell-based, human", "conditions": "72 h, MTT test, cervical carcinoma; read-out: IC50 (µM) ± S.D. A431", "from_the_text": "as §1, §2, §3"}, "A549": {"system": "A549", "assay": "MTT cytotoxicity assay, 2D monolayer", "type": "cell-based, human", "conditions": "72 h", "from_the_text": "as §1, §2, §3"}, "BxPC3": {"system": "BxPC3", "assay": "MTT cytotoxicity assay, 2D monolayer", "type": "cell-based, human", "conditions": "72 h, MTT test, pancreatic carcinoma; read-out: IC50 (µM) ± S.D. BxPC3", "from_the_text": "as §1, §2, §3"}, "HCT-15": {"system": "HCT-15", "assay": "MTT cytotoxicity assay, 2D monolayer", "type": "cell-based, human", "conditions": "72 h", "from_the_text": "as §1, §2, §3"}, "MCF-7": {"system": "MCF-7", "assay": "MTT cytotoxicity assay, 2D monolayer", "type": "cell-based, human", "conditions": "72 h, MTT test, breast carcinoma; read-out: IC50 (µM) ± S.D. MCF-7", "from_the_text": "as §1, §2, §3"}, "LoVo-OXP": {"system": "LoVo-OXP", "assay": "MTT cytotoxicity assay, cross-resistance profile", "type": "cell-based, human", "from_the_text": "as §1, §2\n(§4) HCT-15 colon cancer cells are notoriously poorly chemosensitive to cisplatin. […] As for cisplatin, the clinical effectiveness of OXP is seriously hampered by the cancer cell resistance and, at present, few other drug regimens are available for patients with OXP-refractory colorectal cancers. […] The RF values (calculated by dividing IC50 for resistant cells by those for sensitive ones) were about 10 times lower than that of OXP, excluding the occurrence of cross-resistance phenomena."}, "LoVo": {"system": "LoVo", "assay": "MTT cytotoxicity assay, cross-resistance profile", "type": "cell-based, human", "conditions": "72 h, MTT test, oxaliplatin-sensitive colon cancer cells; read-out: IC50 (µM) ± S.D. LoVo", "from_the_text": "as §1, §2, §4"}, "[1]": {"system": "HCT-15 colon cancer cell spheroids", "assay": "Acid phosphatase (APH) assay in 3D spheroids", "type": "cell-based, human", "conditions": "72 h, APH test, read-out: IC50 (µM) ± S.D. HCT-15 spheroids", "method": "Spheroid cultures were obtained by seeding 2.5 × 10^3 HCT-15 cells/well in round bottom non-tissue culture treated 96 well-plate (Greiner Bio-one, Kremsmünster, Austria) in phenol red free RPMI-1640 medium (Sigma Chemical Co.), containing 10% FCS and supplemented with 20% methyl cellulose stock solution.\nAn APH modified assay was used for determining cell viability in 3D spheroids, as previously described. IC50 values were calculated with a four parameter logistic (4-PL) model. All the values are the means ± SD of not less than four independent experiments.\nThe in vitro antitumor efficacy of the newly developed compounds was also tested on 3D colon cancer cell culture models. Differently from 2D monolayer culture, 3D spheroid cell culture systems comprise cancer cells in various cell growth stages. Consequently, the multicellular cancer spheroid model is recognized to better reflect the tumor mass in vivo regarding drug permeation, cell interactions, gene expression, hypoxia and nutrient gradients with respect to monolayer cell cultures. Table 4 summarizes the IC50 values obtained after treatment of 3D cell spheroids of human HCT-15 colon cancer cells with copper(II) compounds as well as with cisplatin, as reference drug. In accordance with 2D chemosensitivity assays, complex 3 was scarcely effective, whereas complex 1 was as effective as cisplatin. […] We hypothesize that in this non-proliferative and very resistant tumor model the higher lipophilicity of 1, due to the presence of methyl substituents on the pyrazolyl rings, might be responsible for the enhanced compound penetration in the core area of spheroids."}, "[2]": {"system": "panel of human cancer cell lines derived from solid tumors", "assay": "MTT cytotoxicity, whole panel of human cancer cell lines", "type": "cell-based", "conditions": "mean over the cell lines of Table 2, 72 h", "method": "as §2, §3, §4"}, "LoVo cells [3]": {"system": "LoVo cells", "assay": "Cellular uptake (intracellular copper by GF-AAS)", "type": "cell-based, human", "conditions": "24 h, 2 μM", "method": "LoVo cells (2.5 × 10^6) were seeded in 75 cm^2 flasks in growth medium (20 mL). After overnight incubation, the medium was replaced, and the cells were treated with tested compounds for 24 h. Cell monolayers were then processed and mineralized as previously described. The sample was analyzed for copper by using a Varian AA Duo graphite furnace atomic absorption spectrometer (Varian, Palo Alto, CA, USA) at the wavelength of 324 nm. The calibration curve was obtained using known concentrations of standard solutions purchased from Sigma Chemical Co.\nWith the purpose of underling a possible correlation between cellular uptake efficiency and cytotoxicity, LoVo cells were treated for 24 h with equimolar concentrations (2 μM) of copper(II) complexes and the intracellular copper amount was quantified by means of Graphite Furnace Atomic Absorption Spectrometry (GF-AAS) analysis. […] In fact, the intracellular copper content detected in LoVo cells follows the same cytotoxicity trend 1 > 2 > 3."}, "LoVo cells [4]": {"system": "LoVo cells", "assay": "Transmission electron microscopy (TEM) analysis", "type": "cell-based, human", "conditions": "IC50 of compound, 24 h", "method": "Approximately 10^6 LoVo cells were seeded in 24-well plates and, after 24 h incubation, treated with 1 and incubated further 24 h. Samples were then washed with cold PBS, harvested and fixed with 1.5% glutaraldehyde buffer with 0.2 M sodium cacodylate, pH 7.4. After washing with buffer and post-fixation with 1% OsO4 in 0.2 M cacodylate buffer, samples were desiccated and embedded in epoxy resin (Epon Araldite). Sagittal serial sections of about 1 μm were counterstained with toluidine blue; subsequently, sections of 90 nm were stained with uranyl acetate and lead citrate.\nMicrographs were taken with a Hitachi H-600 electron microscope (Hitachi, Tokyo, Japan) at 75 kV. All photos were elaborated in Corel Draw 11 (Corel Corporation, Ottawa, ON, Canada).\nTransmission electron microscopy (TEM) analysis has been performed in order to investigate the influence of copper compounds on LoVo cells morphology and their organelles."}, "Solubility": {"assay": "Solubility", "type": "physicochemical"}, "Stability to air": {"assay": "Stability to air", "type": "physicochemical", "conditions": "also as solutions"}, "LoVo cells [5]": {"system": "LoVo cells", "assay": "ROS production (CM-H2DCFDA)", "type": "cell-based, human", "conditions": "15 μM complexes, antimycin 3 μM", "method": "The production of ROS was measured in LoVo cells (10^4 per well) grown for 24 h in a 96-well plate in RPMI medium without phenol red. Samples were loaded with 10 μM 5-(and-6)-chloromethyl-2′,7′-dichlorodihydrofluorescein diacetate acetyl ester (CM-H2DCFDA) (Molecular Probes-Invitrogen, Eugene, OR, USA) for 25 min, in the dark. Afterward, each well was washed with PBS and incubated with tested complexes. The fluorescence intensity in each well was assessed by means of a Fluoroskan Ascent FL (Labsystem, Vantaa, Finland) plate reader (ex: 485 nm; em: 527 nm). Antimycin (3 μM, Sigma), a well-known inhibitor of the electron transport chain at Complex III level, was used as reference compound.\nIt has been documented that oxidative stress and generation of ROS play a significant role in anticancer activity of copper(II) compounds [22, 81]. To explore the molecular mechanisms underlying the cytotoxicity of newly synthetized copper(II) complexes, cellular production of ROS upon treatment with 15 μM of complex 1, 2 or 3 was monitored in LoVo cells by using the peroxide-sensitive fluorescent probe CM-H2DCFDA (Figure 5). […] Conversely, for all copper complexes there was no ROS induction."}}, "data": [{"compound": "Cc1cc(C)n(C(C(=O)O)n2nc(C)cc2C)n1.Cc1cc(C)n(C(C(=O)[O-])n2nc(C)cc2C)n1.[Cu+2].[O-][Cl+3]([O-])([O-])[O-]", "note": "[compound 1, [HC(COOH)(pz^Me2)2]Cu[HC(COO)(pz^Me2)2]·ClO4]", "values": [{"measurement": "IC50", "setting": "2008", "value": "10.8 ± 1.3", "unit": "µM"}, {"measurement": "IC50", "setting": "A431", "value": "3.8 ± 1.1", "unit": "µM"}, {"measurement": "IC50", "setting": "A549; MTT test, lung carcinoma, read-out: IC50 (µM) ± S.D. A549", "value": "3.6 ± 0.5", "unit": "µM"}, {"measurement": "fold more effective than cisplatin", "setting": "A549; A549 cells, MTT", "value": "roughly 2 fold"}, {"measurement": "IC50", "setting": "BxPC3", "value": "2.5 ± 0.4", "unit": "µM"}, {"measurement": "IC50", "setting": "HCT-15; MTT test, colon carcinoma, read-out: IC50 (µM) ± S.D. HCT-15", "value": "8.5 ± 0.6", "unit": "µM"}, {"measurement": "fold more effective than cisplatin", "setting": "HCT-15; HCT-15 cells, MTT", "value": "roughly 2 fold"}, {"measurement": "IC50", "setting": "MCF-7", "value": "10.5 ± 2.1", "unit": "µM"}, {"measurement": "IC50", "setting": "LoVo-OXP; 72 h, MTT test, oxaliplatin-resistant colon cancer cells, read-out: IC50 (µM) ± S.D. LoVo-OXP", "value": "5.2 ± 0.6", "unit": "µM"}, {"measurement": "RF times lower than that of OXP", "setting": "LoVo-OXP; LoVo-OXP/LoVo", "value": "about 10 times"}, {"measurement": "RF (resistance factor)", "setting": "LoVo-OXP; RF = IC50 (resistant cells)/IC50 (wild-type cells), LoVo-OXP/LoVo", "value": 1.2}, {"measurement": "IC50", "setting": "LoVo", "value": "4.2 ± 0.9", "unit": "µM"}, {"measurement": "IC50", "setting": "[1]", "value": "67.8 ± 14.9", "unit": "µM"}, {"measurement": "IC50", "setting": "[2]", "value": 6.5, "unit": "µM"}, {"measurement": "cellular uptake efficiency (intracellular copper amount)", "setting": "LoVo cells [3]", "value": "taken up slightly more efficiently than complex 2"}, {"measurement": "cytoplasmic vacuolization (TEM morphology)", "setting": "LoVo cells [4]", "value": "massive cytoplasmic vacuolization"}, {"measurement": "hallmarks of apoptosis (TEM morphology)", "setting": "LoVo cells [4]", "value": "no classical hallmarks of apoptosis"}, {"measurement": "solubility in methanol, DMSO and acetonitrile", "setting": "Solubility; methanol, DMSO, acetonitrile", "value": "soluble"}, {"measurement": "solubility in water", "setting": "Solubility; water", "value": "slightly soluble"}, {"measurement": "air stability", "setting": "Stability to air", "value": "air stable even as solutions"}]}, {"compound": "Antimycin", "values": [{"measurement": "ROS production", "setting": "LoVo cells [5]", "value": "markedly stimulated ROS formation"}]}]}
